Measured values: ChEMBL document CHEMBL2346566, “Small molecule inhibitors of PCNA/PIP-box interaction suppress translesion DNA synthesis” (Bioorg Med Chem, 2013)
Activity calls are given as the source filed them. The rule behind the calls is not given here.

How the values were obtained:
Format in all cases: functional, cell-based
HeLa = assay: Antiproliferative activity against human HeLa cells assessed as inhibition of at 10 uM after 18 hrs by assay
U2OS [1] = assay: Cytotoxicity against human U2OS cells at 15 uM after 4 days by Alamar blue assay
U2OS [2] = assay: Potentiation of cisplatin-induced cytotoxicity in human U2OS cells at 15 uM after 4 days by Alamar blue assay

| SMILES | Activity (HeLa) | Activity (U2OS [1]) | Activity (U2OS [2]) |
| --- | --- | --- | --- |
| N[C@H](CO)Cc1cc(I)c(Oc2ccc(O)cc2)c(I)c1 | Active | inactive | Active |
| CC(=O)N[C@H](CO)Cc1cc(I)c(Oc2ccc(O)cc2)c(I)c1 | Active | – | – |
| CS(=O)(=O)NC[C@@H](N)Cc1cc(I)c(Oc2ccc(O)cc2)c(I)c1 | Active | – | – |
| O=C(Cc1cc(I)c(Oc2ccc(O)c(I)c2)c(I)c1)NS(=O)(=O)c1ccccc1 | Active | – | – |
| CC(C)NC(=O)NC[C@@H](N)Cc1cc(I)c(Oc2ccc(O)cc2)c(I)c1 | Active | inactive | Active |
| O=C(CCc1cc(I)c(Oc2ccc(O)cc2)c(I)c1)N1CCOCC1 | Active | – | – |
| COC(=O)N[C@H](CO)Cc1cc(I)c(Oc2ccc(O)cc2)c(I)c1 | Active | – | – |
| O=C(CCc1cc(I)c(Oc2ccc(O)cc2)c(I)c1)NCC1CCCO1 (configuration not stated) | Active | – | – |
| CN(C)C(=O)Cc1cc(I)c(Oc2ccc(O)c(I)c2)c(I)c1 | Active | – | – |
| N[C@H](CNC(=O)CCN1CCOCC1)Cc1cc(I)c(Oc2ccc(O)cc2)c(I)c1 | Active | – | – |
| O=C(CCc1cc(I)c(Oc2ccc(O)cc2)c(I)c1)NCCO | Active | – | – |
| CS(=O)(=O)NC(=O)Cc1cc(I)c(Oc2ccc(O)c(I)c2)c(I)c1 | Active | – | – |
| N[C@H](CNC(=O)N1CCOCC1)Cc1cc(I)c(Oc2ccc(O)cc2)c(I)c1 | Active | – | – |
| CC(C)NC(=O)N[C@H](CO)Cc1cc(I)c(Oc2ccc(O)cc2)c(I)c1 | Active | – | – |
| CNC(=O)Cc1cc(I)c(Oc2ccc(O)c(I)c2)c(I)c1 | Active | inactive | Active |
| O=C(Cc1cc(I)c(Oc2ccc(O)c(I)c2)c(I)c1)N1CCOCC1 | Active | – | – |
| CNC(=O)CCc1cc(I)c(Oc2ccc(O)cc2)c(I)c1 | Active | – | – |
| CC(=O)NC[C@@H](N)Cc1cc(I)c(Oc2ccc(O)cc2)c(I)c1 | Active | inactive | Active |
| CCOCCNC(=O)CCc1cc(I)c(Oc2ccc(O)cc2)c(I)c1 | Active | – | – |
